Results as given in patent US8143259B2, “Cold menthol receptor antagonists” (Janssen Pharmaceutica, NV, priority 2008, dated 2012).
Values joined by “and” are separate entries in the source; they are usually repeats but may differ in a detail not shown here. Equal values may be shown once.

Target: T1, canine TRPM8 (Canis lupus familiaris, UniProt Q1A7N1)
T1 construct: expressed in transfected cells
Experiment: In Vitro Canine TRPM8 Functional Assay (Ca2+ fluorescence, icilin activation)
Format: cell-based
Details: for inhibition at 0.2 µM: HEK293, 0.2 μM compound; for IC50: HEK293 cells stably expressing canine TRPM8, icilin activation, Ca2+ fluorescence; for % Inh @ 0.2 μM: 0.2 μM compound; for % Inh @ 1 μM: 1 μM compound; for inhibition at 1 µM: HEK293, 1 μM compound
Method: The functional activity of compounds of the formula (I) was determined by measuring changes in intracellular calcium concentration using a Ca^2+-sensitive fluorescent dye. The changes in fluorescent signal were monitored by a fluorescence plate reader, either a FLIPR™ (Molecular Devices) or FDSS (Hamamatsu). Increases in intracellular Ca^2+ concentration were readily detected upon activation with icilin.
HEK293 cells stably expressing canine TRPM8 were routinely grown as monolayers in Dulbecco's minimum essential medium supplemented with 10% FBS, 2 mM L-glutamine, 100 units/mL penicillin, 100 ug/mL streptomycin and 400 μg/mL G418. Cells were maintained in 5% CO2 at 37° C. At 24 hrs prior to assay, cells were seeded in black wall, clear-base poly-D-lysine coated 384-well plates (BD Biosciences, NJ, USA) at a density of 5,000 cells per well in culture medium and grown overnight in 5% CO2 at 37° C. On assay day, growth media was removed and cells were loaded with Calcium 3 Dye (Molecular Devices) for 35 min at 37° C., under 5% CO2 and then for 25 min at room temperature and atmosphere. Subsequently, cells were tested for agonist-induced increases in intracellular Ca^2+ levels using FLIPR™ or FDSS. Cells were challenged with compounds of the formula (I) (at varying concentrations) and intracellular Ca^2+ was measured for 5 min prior to the addition of icilin to all wells to achieve a final concentration that produces approximately an 80% maximal response.
Maximal fluorescence intensity (FI) achieved upon addition of icilin was exported from the FLIPR or FDSS software and further analyzed using GraphPad Prism 3.02 (Graph Pad Software Inc., CA, U.S.A.). Basal FI was subtracted prior to normalizing data to percent of maximal response. Curves were generated using the average of quadruplicate wells for each data point, were analyzed using nonlinear regression of either sigmoidal dose response or sigmoidal dose response (variable slope).

[1] = canine TRPM8 HEK293, icilin, 0.2 µM

T1 sequence (Q1A7N1 1-1104): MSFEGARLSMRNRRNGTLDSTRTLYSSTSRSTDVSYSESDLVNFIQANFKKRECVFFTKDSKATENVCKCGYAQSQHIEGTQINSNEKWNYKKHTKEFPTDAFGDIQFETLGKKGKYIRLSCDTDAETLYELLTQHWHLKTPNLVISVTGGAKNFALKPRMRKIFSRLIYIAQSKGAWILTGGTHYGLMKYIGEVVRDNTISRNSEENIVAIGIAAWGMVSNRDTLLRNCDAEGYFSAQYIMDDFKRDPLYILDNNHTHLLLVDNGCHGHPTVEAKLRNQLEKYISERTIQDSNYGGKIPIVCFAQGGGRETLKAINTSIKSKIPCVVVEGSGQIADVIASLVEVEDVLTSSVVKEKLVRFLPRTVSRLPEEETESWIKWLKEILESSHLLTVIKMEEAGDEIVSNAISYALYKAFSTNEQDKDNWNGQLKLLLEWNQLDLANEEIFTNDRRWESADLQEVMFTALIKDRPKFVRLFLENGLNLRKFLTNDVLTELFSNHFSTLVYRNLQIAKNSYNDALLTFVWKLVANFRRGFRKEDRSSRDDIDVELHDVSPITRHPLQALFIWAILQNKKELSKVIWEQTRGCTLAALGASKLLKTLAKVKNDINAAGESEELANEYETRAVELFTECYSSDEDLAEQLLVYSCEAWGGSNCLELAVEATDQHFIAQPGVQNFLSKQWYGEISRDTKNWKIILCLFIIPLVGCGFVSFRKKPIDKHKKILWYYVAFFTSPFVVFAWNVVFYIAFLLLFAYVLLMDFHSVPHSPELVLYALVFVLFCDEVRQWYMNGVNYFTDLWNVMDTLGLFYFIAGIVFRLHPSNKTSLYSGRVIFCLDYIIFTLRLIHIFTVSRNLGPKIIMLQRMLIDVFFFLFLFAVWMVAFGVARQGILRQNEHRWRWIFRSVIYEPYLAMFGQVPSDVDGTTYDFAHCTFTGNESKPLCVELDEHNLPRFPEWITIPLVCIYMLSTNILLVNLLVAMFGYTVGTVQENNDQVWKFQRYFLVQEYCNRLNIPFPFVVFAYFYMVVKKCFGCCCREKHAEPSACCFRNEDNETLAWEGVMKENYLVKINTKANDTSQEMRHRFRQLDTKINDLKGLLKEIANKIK

Row | SMILES | inhibition at 0.2 µM (canine TRPM8 HEK293, icilin) | IC50 | % Inh @ 0.2 μM [1] | further results
1 | COC(=O)[C@@H]1CC[C@H](c2ccccc2)N1C(=O)C(Nc1c(F)cccc1F)c1ccc(Br)cc1 (single isomer, unassigned) [Cpd 204] | 47% |  |  | 
2 | COC(=O)[C@@H]1CC[C@H](c2ccccc2)N1C(=O)C(Nc1c(F)cccc1F)c1ccc(Br)cc1 (single isomer, unassigned) [Cpd 205] |  |  | 62% | 
3 | COC(=O)C1CCC(c2ccccc2)N1C(=O)C(Nc1ccccc1)c1ccc(Cl)cc1 (single isomer, unassigned) [Cpd 206] | 92% | 76 nM |  | 
4 | COC(=O)C1CCC(c2ccccc2)N1C(=O)C(Nc1ccccc1F)c1ccc(Br)cc1 (single isomer, unassigned) [Cpd 208] | 101% | 9 nM |  | 
5 | COC(=O)C1CCC(c2ccccc2)N1C(=O)C(Nc1ccccc1F)c1ccc(Br)cc1 (single isomer, unassigned) [Cpd 209] |  | 99 nM | 94% | 
6 | COC(=O)C1CCC(c2ccccc2)N1C(=O)C(Nc1ccccc1)c1ccc(Cl)cc1 (single isomer, unassigned) [Cpd 212] |  | 17 nM | 99% | 
7 | O=C(C(Nc1ccccc1)c1ccc(Cl)cc1)N1[C@H](CO)CC[C@@H]1c1ccccc1 (single isomer, unassigned) [Cpd 235] |  | 53.7 nM |  | 
8 | O=C(C(Nc1ccccc1F)c1ccc(Br)cc1)N1[C@@H](CO)CC[C@H]1c1ccccc1 (single isomer, unassigned) [Cpd 242] |  | 65.5 nM |  | 
9 | O=C([C@H](Nc1c(F)cccc1F)c1ccc(Br)cc1)N1[C@H](CO)CC[C@@H]1c1ccccc1 (single isomer, unassigned) [Cpd 243] | 88% | 133 nM |  | 
10 | O=C(C(c1ccc(C(F)(F)F)cc1)N1CCc2ccccc21)N1CCC[C@H]1c1cccnc1 (single isomer, unassigned) [Cpd 274] | 98% | 17 nM |  | 
11 | COc1ccccc1C1CCCN1C(=O)C(Nc1ccccc1F)c1cnc2ccccc2c1 (single isomer, unassigned) [Cpd 277] | 101% | 8 nM |  | 
12 | COc1ccccc1C1CCCN1C(=O)C(Nc1ccccc1F)c1cnc2ccccc2c1 (single isomer, unassigned) [Cpd 278] |  | 31 nM and 36 nM | 94% and 101% | 
13 | O=C(C(Nc1ccccc1F)c1cnc2ccccc2c1)N1CCC[C@H]1c1ccccc1F (single isomer, unassigned) [Cpd 280] | 93% | 4 nM and 8 nM | 101% | 
14 | O=C(C(Nc1ccccc1F)c1cnc2ccccc2c1)N1CCCC1c1cccnc1 (single isomer, unassigned) [Cpd 298] |  |  |  | % Inh @ 0.2 μM (canine TRPM8 HEK293, icilin): 22%
15 | O=C(C(Nc1ccccc1F)c1ccc(-c2ccccc2)nc1)N1CCCC1c1ccccc1F (single isomer, unassigned) [Cpd 308] |  |  |  | % Inh @ 0.2 μM (canine TRPM8 HEK293, icilin): 11%
16 | O=C(C(Nc1ccccc1F)c1ccc2ncccc2c1)N1CCCC1c1ccccc1Cl (single isomer, unassigned) [Cpd 315] |  |  |  | % Inh @ 0.2 μM (canine TRPM8 HEK293, icilin): 49%

Row | SMILES | inhibition at 0.2 µM (canine TRPM8 HEK293, icilin) | IC50 | % Inh @ 0.2 μM [1] | further results
17 | O=C(C(Nc1ccccc1F)c1cc2ccccc2s1)N1CCCC1c1ccncc1 (single isomer, unassigned) [Cpd 322] | 89% | 8 nM |  | 
18 | O=C(C(Nc1ccccc1F)c1cc2ccccc2s1)N1CCCC1c1ccncc1 (single isomer, unassigned) [Cpd 323] |  | 24 nM | 95% | 
19 | O=C(C(Nc1ccccc1F)c1cc2ccccc2s1)N1CCCC1c1ccccn1 (single isomer, unassigned) [Cpd 330] | 101% | 6 nM |  | 
20 | O=C(C(Nc1ccccc1F)c1cc2ccccc2s1)N1CCCC1c1ccccn1 (single isomer, unassigned) [Cpd 331] |  | 13 nM |  | % Inh @ 0.2 μM (canine TRPM8 HEK293, icilin): 101%
21 | O=C(C(Nc1ccccc1F)c1cncc2ccccc12)N1CCCC1c1ccccc1F (single isomer, unassigned) [Cpd 332] |  |  | 47% | 
22 | O=C(C(Nc1ccccc1F)c1cncc2ccccc12)N1CCCC1c1ccccc1F (single isomer, unassigned) [Cpd 333] |  |  | 62% | 
23 | Cc1nc2ccc(C(Nc3ccccc3F)C(=O)N3CCCC3c3ccccc3F)cc2s1 (single isomer, unassigned) [Cpd 340] | 101% | 5 nM |  | 
24 | Cc1nc2ccc(C(Nc3ccccc3F)C(=O)N3CCCC3c3ccccc3F)cc2s1 (single isomer, unassigned) [Cpd 341] |  | 24 nM | 100% | 
25 | CC(C)(C)c1ccc(C(Nc2ccccc2F)C(=O)N2CCCC2c2ccccc2F)cn1 (single isomer, unassigned) [Cpd 356] |  |  |  | % Inh @ 0.2 μM (canine TRPM8 HEK293, icilin): 57%
26 | O=C(C(Nc1ccccc1F)c1ccc(N2CCOCC2)nc1)N1CCCC1c1ccccc1F (single isomer, unassigned) [Cpd 360] |  |  | 43% | 
27 | CC(C)(C)c1ccc(C(Nc2ccccc2)C(=O)N2CCCC2c2ccc(Cl)cc2)cc1 (single isomer, unassigned) [Cpd 367] |  | 149 ± 51 nM |  | % Inh @ 1 μM (canine TRPM8 HEK293, icilin, 1 µM): 5.8157%
28 | CC(C)(C)c1ccc(C(Nc2ccccc2)C(=O)N2CCCC2CNc2ccccc2)cc1 (single isomer, unassigned) [Cpd 368] |  |  |  | % Inh @ 1 μM (canine TRPM8 HEK293, icilin): 15.864%
29 | O=C(C(Nc1ccccc1)c1ccc(C(F)(F)F)cc1)N1CCCC1c1ccccc1Cl (single isomer, unassigned) [Cpd 369] |  |  |  | % Inh @ 0.5 μM (0.5 μM compound, canine TRPM8 HEK293, icilin): 7.773%; % Inh @ 3 μM (3 μM compound, canine TRPM8 HEK293, icilin): 48%
30 | CC(C)(C)c1ccc(C(Nc2ccccc2)C(=O)N2CCC(O)(c3ccccc3)CC2)cc1 (stereo not shown) [Cpd 3] |  | 351 nM |  | inhibition at 1 µM (canine TRPM8 HEK293, icilin): 101%
31 | CC(C)(C)c1ccc(C(Nc2ccccc2)C(=O)N2CCC(O)(c3ccccn3)CC2)cc1 (stereo not shown) [Cpd 4] |  | 291 nM |  | inhibition at 1 µM (canine TRPM8 HEK293, icilin): 102%
32 | CC(C)(C)c1ccc(C(Nc2ccccc2)C(=O)N2CCCC2c2cccnc2)cc1 (stereo not shown) [Cpd 5] |  | 99.5 nM |  | inhibition at 1 µM (canine TRPM8 HEK293, icilin): 102%

Further lines, with some results ahead:

Row | inhibition at 0.2 µM (canine TRPM8 HEK293, icilin) | IC50 | % Inh @ 0.2 μM [1] | SMILES | further results
33 | 98% | 9 nM |  | O=C(C(Nc1ccccc1F)c1ccc(C(F)(F)F)cc1)N1CCCC1c1ccccc1Cl (single isomer, unassigned) [Cpd 189] | 
34 | 89% | 85 nM |  | O=C(C(Nc1ccccc1F)c1ccc(C(F)(F)F)cc1)N1CCCC1c1ccccc1 (single isomer, unassigned) [Cpd 190] | 
35 |  | 5 nM | 100% | O=C(C(Nc1ccccc1F)c1ccc(C(F)(F)F)cc1)N1CCCC1c1ccccc1 (single isomer, unassigned) [Cpd 191] | 
36 |  | 19 nM and 35 nM | 101% | O=C(C(Nc1ccccc1F)c1ccc(C(F)(F)F)cc1)N1CCCC1c1ccccc1Cl (single isomer, unassigned) [Cpd 198] | 
37 | 93% | 8.4 nM |  | O=C(C(Nc1ccccc1F)c1ccc2ncccc2c1)N1CCCC1c1ccccc1F (single isomer, unassigned) [Cpd 247] | 
38 |  | 53.7 nM | 90% | O=C(C(Nc1ccccc1F)c1ccc2ncccc2c1)N1CCCC1c1ccccc1F (single isomer, unassigned) [Cpd 251] | 
39 | 88% | 4 nM and 9 nM | 96% | O=C(C(Nc1ccccc1F)c1ccc(-c2ccccn2)cc1)N1CCCC1c1ccccc1F (single isomer, unassigned) [Cpd 296] | 
40 |  | 65 nM and 69 nM | 85% and 87% | O=C(C(Nc1ccccc1F)c1ccc(-c2ccccn2)cc1)N1CCCC1c1ccccc1F (single isomer, unassigned) [Cpd 297] | 
41 | 102% | 4 nM |  | O=C(C(Nc1ccccc1F)c1ccc(-c2ccccc2)nc1)N1CCC[C@H]1c1ccccc1F (single isomer, unassigned) [Cpd 307] | 
42 | 101% | 17 nM |  | O=C(C(Nc1ccccc1F)c1ccc(-c2ccccn2)cc1)N1CCCC1c1ccccc1Cl (single isomer, unassigned) [Cpd 338] | 
43 |  | 27 nM | 97% | O=C(C(Nc1ccccc1F)c1ccc(-c2ccccn2)cc1)N1CCCC1c1ccccc1Cl (single isomer, unassigned) [Cpd 339] | 
44 | 92% | 44 nM |  | O=C(C(Nc1ccccc1F)c1ccc(C(F)(F)F)cc1)N1CCCC1c1cncc(Br)c1 (single isomer, unassigned) [Cpd 345] | 
45 |  | 38 nM | 97% | O=C(C(Nc1ccccc1F)c1ccc(C(F)(F)F)cc1)N1CCCC1c1cncc(Br)c1 (single isomer, unassigned) [Cpd 346] | 
46 | 100% | 3 nM |  | CC(C)(C)c1ccc(C(Nc2ccccc2F)C(=O)N2CCC[C@H]2c2ccccc2F)cn1 (single isomer, unassigned) [Cpd 357] | 
